# Measurements from ChEMBL document CHEMBL1201862, “PubChem BioAssay data set” (2004).
#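 How tested: cells in 96-well plates exposed to compound for 48 hours at five concentrations. GI50 marks 50% less growth.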 Activity calls are given as the source filed them. No stated cut-off is given here; in the data, active = GI50 up to about 1.1 µM and inactive = higher.
# Legend:
# Assay in all cases: NCI anticancer screen, dose series, 48 h
# [1] = tested on: 786-0
# [2] = tested on: A498
# [3] = tested on: A549
# [4] = tested on: ACHN
# [5] = tested on: BT-549
# [6] = tested on: CAKI-1
# [7] = tested on: CCRF-CEM
# [8] = tested on: COLO 205
# [9] = tested on: EKVX
# [10] = tested on: HCC 2998
# [11] = tested on: HCT-116
# [12] = tested on: HCT-15
# [13] = tested on: HL-60
# [14] = tested on: HOP-62
# [15] = tested on: HOP-92
# [16] = tested on: HT-29
# [17] = tested on: Hs-578T
# [18] = tested on: IGROV-1
# [19] = tested on: K562
# [20] = tested on: LOX IMVI
# [21] = tested on: M14
# [22] = tested on: MCF7
# [23] = tested on: MDA-MB-435
# [24] = tested on: MDA-N
# [25] = tested on: Malme-3M
# [26] = tested on: NCI-H23
# [27] = tested on: NCI-H460
# [28] = tested on: NCI/ADR-RES
# [29] = tested on: OVCAR-4
# [30] = tested on: OVCAR-5
# [31] = tested on: OVCAR-8
# [32] = tested on: PC-3
# [33] = tested on: RPMI-8226
# [34] = tested on: SF-295
# [35] = tested on: SF-539
# [36] = tested on: SK-MEL-2
# [37] = tested on: SK-MEL-5
# [38] = tested on: SK-OV-3
# [39] = tested on: SN12C
# [40] = tested on: SNB-19
# [41] = tested on: SW-620
# [42] = tested on: TK-10
# [43] = tested on: UACC-257
# [44] = tested on: UACC-62
# [45] = tested on: UO-31
# [46] = tested on: DU-145
# [47] = tested on: KM12
# [48] = tested on: MDA-MB-231
# [49] = tested on: MOLT-4
# [50] = tested on: NCI-H226
# [51] = tested on: NCI-H522
# [52] = tested on: RXF 393
# [53] = tested on: SF-268
# [54] = tested on: SK-MEL-28
# [55] = tested on: SNB-75
# [56] = tested on: SR
# [57] = tested on: T47D
# [58] = tested on: U-251
# [59] = tested on: OVCAR-3
compound,measurement,setting,value
Cc1cc(-c2cscn2)c(O)c([N+](=O)[O-])c1,GI50,[1],60.8 µM (inactive)
same,GI50,[2],28.7 µM (inactive)
same,GI50,[3],46.6 µM (inactive)
same,GI50,[4],37.2 µM (inactive)
same,GI50,[5],77.6 µM (inactive)
same,GI50,[6],43 µM (inactive)
same,GI50,[7],41 µM (inactive)
same,GI50,[8],28.3 µM (inactive)
same,GI50,[9],65.8 µM (inactive)
same,GI50,[10],81.3 µM (inactive)
same,GI50,[11],49.7 µM (inactive)
same,GI50,[12],38.4 µM
same,GI50,[13],34.8 µM (inactive)
same,GI50,[14],52.7 µM (inactive)
same,GI50,[15],93.5 µM (inactive)
same,GI50,[16],89.3 µM (inactive)
same,GI50,[17],90.8 µM (inactive)
same,GI50,[18],55 µM (inactive)
same,GI50,[19],34.2 µM (inactive)
same,GI50,[20],29.4 µM (inactive)
same,GI50,[21],90.4 µM (inactive)
same,GI50,[22],21.4 µM (inactive)
same,GI50,[23],74.3 µM (inactive)
same,GI50,[24],74.3 µM (inactive)
same,GI50,[25],70.6 µM (inactive)
same,GI50,[26],58.3 µM (inactive)
same,GI50,[27],34.2 µM (inactive)
same,GI50,[28],46.5 µM (inactive)
same,GI50,[29],82.6 µM (inactive)
same,GI50,[30],> 100 µM (inactive)
same,GI50,[31],48.3 µM (inactive)
same,GI50,[32],41.4 µM (inactive)
same,GI50,[33],52.6 µM (inactive)
same,GI50,[34],0.906 µM (active)
same,GI50,[35],56 µM (inactive)
same,GI50,[36],85.1 µM (inactive)
same,GI50,[37],31 µM (inactive)
same,GI50,[38],16.1 µM (inactive)
same,GI50,[39],45 µM (inactive)
same,GI50,[40],> 100 µM (inactive)
same,GI50,[41],75.7 µM (inactive)
same,GI50,[42],52.7 µM (inactive)
same,GI50,[43],63.8 µM (inactive)
same,GI50,[44],62.7 µM (inactive)
same,GI50,[45],50.2 µM (inactive)
O=C(NNc1ccc([N+](=O)[O-])cc1[N+](=O)[O-])/C(O)=C\C(=O)c1ccccc1,GI50,[1],13.2 µM (inactive)
same,GI50,[2],28.9 µM (inactive)
same,GI50,[3],17.6 µM (inactive)
same,GI50,[4],23.1 µM (inactive)
same,GI50,[5],22.2 µM (inactive)
same,GI50,[6],21.1 µM (inactive)
same,GI50,[7],16.9 µM (inactive)
same,GI50,[8],18.4 µM (inactive)
same,GI50,[46],16.9 µM (inactive)
same,GI50,[9],25.2 µM (inactive)
same,GI50,[10],16.4 µM (inactive)
same,GI50,[11],14.4 µM (inactive)
same,GI50,[12],16.5 µM
same,GI50,[14],16.3 µM (inactive)
same,GI50,[18],17.9 µM (inactive)
same,GI50,[19],25.1 µM (inactive)
same,GI50,[47],16.3 µM (inactive)
same,GI50,[20],24.5 µM (inactive)
same,GI50,[21],14.3 µM (inactive)
same,GI50,[22],29.4 µM (inactive)
same,GI50,[48],23.4 µM (inactive)
same,GI50,[23],30.5 µM (inactive)
same,GI50,[24],27.9 µM (inactive)
same,GI50,[49],17.7 µM (inactive)
same,GI50,[25],30 µM (inactive)
same,GI50,[50],21.2 µM (inactive)
same,GI50,[26],20 µM (inactive)
same,GI50,[27],19 µM (inactive)
same,GI50,[51],25.6 µM (inactive)
same,GI50,[28],16.3 µM (inactive)
same,GI50,[29],22.6 µM (inactive)
same,GI50,[30],19.7 µM (inactive)
same,GI50,[31],18.7 µM (inactive)
same,GI50,[32],20.3 µM (inactive)
same,GI50,[33],15.3 µM (inactive)
same,GI50,[52],16.3 µM (inactive)
same,GI50,[53],17.7 µM (inactive)
same,GI50,[34],15.3 µM (inactive)
same,GI50,[35],15.4 µM (inactive)
same,GI50,[54],23.5 µM (inactive)
same,GI50,[36],27.1 µM (inactive)
same,GI50,[37],20.7 µM (inactive)
same,GI50,[38],18.6 µM (inactive)
same,GI50,[39],16.5 µM (inactive)
same,GI50,[40],25.4 µM (inactive)
same,GI50,[55],12.8 µM (inactive)
same,GI50,[56],19.9 µM (inactive)
same,GI50,[41],16.6 µM (inactive)
same,GI50,[57],15.6 µM (inactive)
same,GI50,[42],22.4 µM (inactive)
same,GI50,[58],14.9 µM (inactive)
same,GI50,[43],29 µM (inactive)
same,GI50,[44],15.5 µM (inactive)
same,GI50,[45],14.3 µM (inactive)
Cc1cn(C2CC(/[N+]([O-])=N\Nc3ccc([N+](=O)[O-])cc3)C(CO)O2)c(=O)[nH]c1=O (centres undefined),GI50,[1],> 100 µM (inactive)
same,GI50,[2],> 100 µM (inactive)
same,GI50,[3],> 100 µM (inactive)
same,GI50,[4],> 100 µM (inactive)
same,GI50,[5],> 100 µM (inactive)
same,GI50,[6],> 100 µM (inactive)
same,GI50,[7],> 100 µM (inactive)
same,GI50,[8],> 100 µM (inactive)
same,GI50,[46],> 100 µM (inactive)
same,GI50,[9],> 100 µM (inactive)
same,GI50,[10],40.7 µM (inactive)
same,GI50,[11],> 100 µM (inactive)
same,GI50,[12],> 100 µM
same,GI50,[13],> 100 µM (inactive)
same,GI50,[14],> 100 µM (inactive)
same,GI50,[15],> 100 µM (inactive)
same,GI50,[16],> 100 µM (inactive)
same,GI50,[17],> 100 µM (inactive)
same,GI50,[18],22.5 µM (inactive)
same,GI50,[19],> 100 µM (inactive)
same,GI50,[47],> 100 µM (inactive)
same,GI50,[20],> 100 µM (inactive)
same,GI50,[21],> 100 µM (inactive)
same,GI50,[48],73.3 µM (inactive)
same,GI50,[23],> 100 µM (inactive)
same,GI50,[24],> 100 µM (inactive)
same,GI50,[49],22.2 µM (inactive)
same,GI50,[25],> 100 µM (inactive)
same,GI50,[50],> 100 µM (inactive)
same,GI50,[26],> 100 µM (inactive)
same,GI50,[27],94.2 µM (inactive)
same,GI50,[51],> 100 µM (inactive)
same,GI50,[28],> 100 µM (inactive)
same,GI50,[59],> 100 µM (inactive)
same,GI50,[30],> 100 µM (inactive)
same,GI50,[31],> 100 µM (inactive)
same,GI50,[32],> 100 µM (inactive)
same,GI50,[33],42.8 µM (inactive)
same,GI50,[52],> 100 µM (inactive)
same,GI50,[53],> 100 µM (inactive)
same,GI50,[34],> 100 µM (inactive)
same,GI50,[35],> 100 µM (inactive)
same,GI50,[54],> 100 µM (inactive)
same,GI50,[38],> 100 µM (inactive)
same,GI50,[39],> 100 µM (inactive)
same,GI50,[40],> 100 µM (inactive)
same,GI50,[56],4.62 µM (inactive)
same,GI50,[41],> 100 µM (inactive)
same,GI50,[42],> 100 µM (inactive)
same,GI50,[58],> 100 µM (inactive)
same,GI50,[43],> 100 µM (inactive)
same,GI50,[44],> 100 µM (inactive)
same,GI50,[45],> 100 µM (inactive)
Cc1c(/C=N\NC(=S)NCCNC(=S)N/N=C\c2c(C)n(C)n(-c3ccccc3)c2=O)c(=O)n(-c2ccccc2)n1C,GI50,[1],> 100 µM (inactive)
same,GI50,[2],> 100 µM (inactive)
same,GI50,[3],> 100 µM (inactive)
same,GI50,[4],> 100 µM (inactive)
same,GI50,[5],> 100 µM (inactive)
same,GI50,[6],> 100 µM (inactive)
same,GI50,[8],> 100 µM (inactive)
same,GI50,[46],> 100 µM (inactive)
same,GI50,[9],> 100 µM (inactive)
same,GI50,[10],> 100 µM (inactive)
same,GI50,[11],> 100 µM (inactive)
same,GI50,[12],> 100 µM
same,GI50,[14],> 100 µM (inactive)
same,GI50,[15],> 100 µM (inactive)
same,GI50,[16],> 100 µM (inactive)
same,GI50,[17],> 100 µM (inactive)
same,GI50,[47],> 100 µM (inactive)
same,GI50,[21],> 100 µM (inactive)
same,GI50,[48],54.8 µM (inactive)
same,GI50,[23],92.5 µM (inactive)
same,GI50,[49],> 100 µM (inactive)
same,GI50,[25],> 100 µM (inactive)
same,GI50,[50],> 100 µM (inactive)
same,GI50,[26],> 100 µM (inactive)
same,GI50,[27],> 100 µM (inactive)
same,GI50,[28],> 100 µM (inactive)
same,GI50,[59],> 100 µM (inactive)
same,GI50,[29],> 100 µM (inactive)
same,GI50,[30],> 100 µM (inactive)
same,GI50,[32],> 100 µM (inactive)
same,GI50,[52],> 100 µM (inactive)
same,GI50,[53],> 100 µM (inactive)
same,GI50,[34],> 100 µM (inactive)
same,GI50,[35],> 100 µM (inactive)
same,GI50,[36],22.4 µM (inactive)
same,GI50,[37],> 100 µM (inactive)
same,GI50,[38],> 100 µM (inactive)
same,GI50,[40],> 100 µM (inactive)
same,GI50,[55],38 µM (inactive)
same,GI50,[56],> 100 µM (inactive)
same,GI50,[41],> 100 µM (inactive)
same,GI50,[57],> 100 µM (inactive)
same,GI50,[42],> 100 µM (inactive)
same,GI50,[58],> 100 µM (inactive)
same,GI50,[43],> 100 µM (inactive)
same,GI50,[44],> 100 µM (inactive)
same,GI50,[45],> 100 µM (inactive)
